The test has as its target T1, hM3 muscarinic receptor subtype (Homo sapiens, UniProt P20309).
T1 construct: expressed in transfected cells; crude membranes prepared in house
The test can be described thus: Radioligand binding assay ([3H]-NMS displacement). Conditions: [3H]-NMS 1 nM, CHO cell membranes, 60 minutes at 37° C.; read-out: Ki value for the M3 muscarinic receptor subtype. As to the method:
A. Membrane Preparation from Cells Expressing hM1, hM2, hM3 and hM4 Muscarinic Receptor Subtypes
CHO cell lines stably expressing cloned human hM1, hM2, hM3 and hM4 muscarinic receptor subtypes, respectively, were grown to near confluency in medium consisting of HAM's F-12 supplemented with 10% FBS and 250 μg/mL Geneticin. The cells were grown in a 5% CO2, 37° C. incubator and lifted with 2 mM EDTA in dPBS. Cells were collected by 5 minute centrifugation at 650×g, and cell pellets were either stored frozen at −80° C. or membranes were prepared immediately. For membrane preparation, cell pellets were resuspended in lysis buffer and homogenized with a Polytron PT-2100 tissue disrupter (Kinematica AG; 20 seconds×2 bursts). […] The protein concentration of the membrane suspension was determined by the method described in Lowry, O. et al., […] 193:265 (1951). […]
Radioligand binding assays were performed in 96-well microtiter plates in a total assay volume of 100 μL. […] Filter plates were rinsed three times with wash buffer (10 mM HEPES) to remove unbound radioactivity. […] The plates were then counted in a PerkinElmer Topcount liquid scintillation counter (PerkinElmer Inc., Wellesley, Mass.). Binding data were analyzed by nonlinear regression analysis with the GraphPad Prism Software package (GraphPad Software, Inc., San Diego, Calif.) using the one-site competition model. […]

Each structure is given as a SMILES string.

T1 sequence (P20309 whole entry): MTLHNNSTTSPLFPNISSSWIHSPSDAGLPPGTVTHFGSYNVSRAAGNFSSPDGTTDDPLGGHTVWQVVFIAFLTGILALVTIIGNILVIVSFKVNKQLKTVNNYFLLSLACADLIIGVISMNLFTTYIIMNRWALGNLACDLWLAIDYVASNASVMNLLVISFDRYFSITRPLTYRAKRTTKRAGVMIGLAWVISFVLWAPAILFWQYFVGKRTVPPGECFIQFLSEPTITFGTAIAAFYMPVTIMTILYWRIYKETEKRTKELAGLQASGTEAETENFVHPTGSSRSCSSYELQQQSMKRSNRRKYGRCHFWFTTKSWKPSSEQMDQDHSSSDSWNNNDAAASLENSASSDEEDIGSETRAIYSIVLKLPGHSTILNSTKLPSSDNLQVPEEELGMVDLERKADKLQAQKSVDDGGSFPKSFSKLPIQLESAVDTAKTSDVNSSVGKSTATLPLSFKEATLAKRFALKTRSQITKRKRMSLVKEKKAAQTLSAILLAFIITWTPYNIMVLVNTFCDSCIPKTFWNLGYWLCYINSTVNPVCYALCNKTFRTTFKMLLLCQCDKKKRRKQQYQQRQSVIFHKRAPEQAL

In general, Ki refers to a measure of affinity in units of concentration, obtained from inhibition or displacement. For the compound `NC(=O)C1CCN(Cc2ccc(NC(=O)CCN3CCC(OC(=O)Nc4ccccc4-c4ccccc4)CC3)cc2)CC1` [Example 1, Biphenyl-2-ylcarbamic Acid 1-{2-[4-(4-Carbamoylpiperidin-1-ylmethyl)phenylcarbamoyl]ethyl}piperidin-4-yl Ester], the Ki is below 5 nM.
